Data as given in ChEMBL document CHEMBL1201862, “PubChem BioAssay data set” (2004).
Calls of active or inactive are those of the source.

Legend:
Cytochrome P450 2C19 = Cytochrome P450 2C19 (Homo sapiens, UniProt P33261); experiment: qHTS Assay for Inhibitors and Substrates of Cytochrome P450 2C19. [Related pubchem assays: 410 ]; format: ADME; settings: read-out: Potency
[1] = biological target: 5-hydroxytryptamine receptor 1E (Homo sapiens, UniProt P28566); experiment: Counterscreen assay for S1P3 antagonists: Dose response cell-based high throughput screening assay to identify antagonists of the 5-Hydroxytryptamine Receptor Subtype 1E (5HT1E). [Related pubchem assays: 1429, 485 ]; format: functional
[2] = biological target: Sphingosine 1-phosphate receptor 3 (Homo sapiens, UniProt Q99500); experiment: Dose response cell-based high throughput screening assay for antagonists of the Sphingosine 1-Phosphate Receptor 3 (S1P3). [Related pubchem assays: 1429, 485 ]; format: functional
Bcl-2-related protein A1 [3] = biological target: T1, Bcl-2-related protein A1 (Mus musculus, UniProt Q07440); experiment: Bfl-1 binding inhibitors, SAR follow-up, biochemical, fluorescence polarization (AID 1070)
T1 sequence (Q07440 whole entry): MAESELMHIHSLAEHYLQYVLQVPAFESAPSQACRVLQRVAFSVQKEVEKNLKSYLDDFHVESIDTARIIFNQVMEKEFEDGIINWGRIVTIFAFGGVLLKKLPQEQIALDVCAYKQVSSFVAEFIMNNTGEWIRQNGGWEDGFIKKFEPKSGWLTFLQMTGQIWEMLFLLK

Bcl-2-related protein A1 [4] = biological target: T1, Bcl-2-related protein A1; experiment: small-molecule antagonists of Bfl-1/BH3 interaction – biochemical, TR-FRET, mouse Bfl-1, confirmation (AID 621);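 also: TR-FRET binding of GST-Bfl-1 to FITC-labelled Bid peptide via terbium antibody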
[5] = biological target: Glyceraldehyde-3-phosphate dehydrogenase (Homo sapiens, UniProt P04406)
Orexin receptor type 2 [6] = biological target: T2, Orexin receptor type 2 (Homo sapiens, UniProt O43614); experiment: Counterscreen assay for antagonists of the orexin 1 receptor (OX1R; HCRTR1): Homogeneous Time Resolved Fluorescence (HTRF)-based cell-based dose response assay for antagonists of the orexin 2 receptor (OX2R; HCRTR2), run by assay provider.; format: functional
T2 sequence (O43614 whole entry): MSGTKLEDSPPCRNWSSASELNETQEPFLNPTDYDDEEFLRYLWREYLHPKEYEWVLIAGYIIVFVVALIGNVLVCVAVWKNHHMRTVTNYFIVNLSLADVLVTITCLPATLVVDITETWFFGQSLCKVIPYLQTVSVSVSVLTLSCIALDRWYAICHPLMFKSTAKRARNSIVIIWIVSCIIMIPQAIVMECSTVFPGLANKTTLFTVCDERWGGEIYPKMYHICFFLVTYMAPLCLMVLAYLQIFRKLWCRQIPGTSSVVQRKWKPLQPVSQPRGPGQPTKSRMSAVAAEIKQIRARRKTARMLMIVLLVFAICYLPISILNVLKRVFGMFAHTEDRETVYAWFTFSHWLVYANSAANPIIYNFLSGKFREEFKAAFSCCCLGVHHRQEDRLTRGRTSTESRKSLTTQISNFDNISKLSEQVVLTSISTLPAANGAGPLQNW

[7] = biological target: T3, Orexin/Hypocretin receptor type 1 (Homo sapiens, UniProt O43613); experiment: Fluorescence-based cell-based high throughput dose response assay for antagonists of the orexin 1 receptor (OX1R; HCRTR1). [Related pubchem assays (depositor defined):AID434989, AID435008, AID463079, AID485270, AID492963, AID492964, AID492965, AID493232, AID504717, AID504718]; format: functional
T3 sequence (O43613 whole entry): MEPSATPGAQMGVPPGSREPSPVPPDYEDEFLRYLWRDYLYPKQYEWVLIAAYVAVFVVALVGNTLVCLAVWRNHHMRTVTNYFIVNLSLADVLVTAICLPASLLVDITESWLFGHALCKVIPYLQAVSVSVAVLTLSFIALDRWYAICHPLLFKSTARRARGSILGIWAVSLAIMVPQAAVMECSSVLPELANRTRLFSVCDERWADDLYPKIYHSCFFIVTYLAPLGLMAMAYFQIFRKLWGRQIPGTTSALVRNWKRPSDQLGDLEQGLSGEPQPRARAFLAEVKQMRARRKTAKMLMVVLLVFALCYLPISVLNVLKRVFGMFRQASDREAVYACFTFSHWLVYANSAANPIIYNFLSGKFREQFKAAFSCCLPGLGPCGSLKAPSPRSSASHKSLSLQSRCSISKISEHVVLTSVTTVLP

[8] = Counterscreen for antagonists of the orexin 1 receptor (OX1R; HCRTR1): Fluorescence-based cell-based high throughput dose response assay to identify antagonists of the parental CHO cell line. [Related pubchem assays (depositor defined):AID434989, AID435008, AID463079, AID485270, AID492963, AID492964, AID492965, AID493232, AID504699, AID504701]; format: functional
Orexin receptor type 2 [9] = biological target: T2, Orexin receptor type 2; experiment: Counterscreen assay for antagonists of the orexin 1 receptor (OX1R; HCRTR1): Fluorescence-based cell-based dose response assay for antagonists of the orexin 2 receptor (OX2R; HCRTR2), run by assay provider.; format: functional
[10] = biological target: T3, Orexin/Hypocretin receptor type 1; experiment: Homogeneous Time Resolved Fluorescence (HTRF)-based cell-based high throughput dose response assay for antagonists of the orexin 1 receptor (OX1R; HCRTR1). [Related pubchem assays (depositor defined):AID434989, AID435008, AID463079, AID485270, AID492963, AID492964, AID492965, AID493232, AID504717, AID504718]; format: functional
CHO-K1 = experiment: Counterscreen for antagonists of the orexin 1 receptor (OX1R; HCRTR1): Homogeneous time resolved fluorescence (HTRF)-based cell-based dose response assay to identify antagonists of the parental CHO-K1 cell line. [Related pubchem assays (depositor defined):AID434989, AID435008, AID463079, AID485270, AID492963, AID492964, AID492965, AID493232, AID504699, AID504701]; format: functional; settings: Cricetulus griseus
[11] = M. tuberculosis growth inhibition, HTS (AID 449762); format: functional
[12] = biological target: Peroxisome proliferator-activated receptor gamma/Nuclear receptor corepressor 2 (Homo sapiens, UniProt P37231+Q9Y618); experiment: Counterscreen for NR2E3 inverse agonists: TR-FRET-based biochemical high throughput dose response assay to identify inverse agonists of the interaction between peroxisome proliferator-activated receptor gamma (PPARg) and nuclear receptor co-repressor 2 (NCOR2).; format: functional
[13] = biological target: Photoreceptor-specific nuclear receptor (Homo sapiens, UniProt Q9Y5X4); experiment: ligands suppressing NR2E3 nuclear receptor activity – biochemical, TR-FRET, dose response (AID 463256); format: functional
Mucolipin-3 [14] = biological target: T4, Mucolipin-3 (Homo sapiens, UniProt Q8TDD5); experiment: human mucolipin-3 activators, concentration-response – cell-based, calcium fluorescence, dose response (AID 2510); format: functional
T4 sequence (Q8TDD5 whole entry): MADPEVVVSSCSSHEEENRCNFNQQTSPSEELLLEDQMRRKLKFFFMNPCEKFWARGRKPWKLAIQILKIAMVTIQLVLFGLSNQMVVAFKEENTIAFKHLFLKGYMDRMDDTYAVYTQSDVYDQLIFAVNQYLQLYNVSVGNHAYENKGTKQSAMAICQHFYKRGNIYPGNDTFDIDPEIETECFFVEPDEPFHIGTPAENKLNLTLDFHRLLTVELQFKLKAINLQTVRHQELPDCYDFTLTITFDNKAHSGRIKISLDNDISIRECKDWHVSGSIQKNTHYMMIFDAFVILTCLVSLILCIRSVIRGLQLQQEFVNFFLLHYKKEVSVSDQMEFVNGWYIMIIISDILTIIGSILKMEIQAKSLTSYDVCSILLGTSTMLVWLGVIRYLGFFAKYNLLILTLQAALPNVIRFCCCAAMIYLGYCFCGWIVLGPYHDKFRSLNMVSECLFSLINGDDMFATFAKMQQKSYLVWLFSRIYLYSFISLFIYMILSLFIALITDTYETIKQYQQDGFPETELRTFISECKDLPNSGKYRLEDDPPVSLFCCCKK

Ion channel NompC [15] = biological target: T5, Ion channel NompC (Danio rerio, UniProt Q7T1G6); experiment: Late stage counterscreen for the probe development effort to identify selective agonists of the Transient Receptor Potential Channels 3 (TRPML3): fluorescence-based cell-based dose response assay for TRPN1 agonists.; format: functional
Mucolipin-3 [16] = biological target: T4, Mucolipin-3; experiment: Dose response cell-based high-throughput screening assay for agonists of the transient receptor potential channel ML3 (TRPML3). [Related pubchem assays: 1526, 1424, 1448 ]; format: functional
Ion channel NompC [17] = biological target: T5, Ion channel NompC; experiment: Fluorescence counterscreen assay for TRPML3 agonists: dose response cell-based high-throughput screening assay to identify agonists of the transient receptor potential channel N1 (TRPN1). [Related pubchem assays: 1526, 1424, 1448 ]; format: functional
NADPH oxidase 1 = NADPH oxidase 1 (Homo sapiens, UniProt Q9Y5S8); format: functional, cell-based;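 also: Cell-based assay with luminescence read-out, IC50 derived from inhibitor dose-response curves; intracellular ROS from endogenous NOX1 in intact HT29 colon cancer cells; potency of inhibitors that lower the ROS luminescence signal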
[18] = biological target: T6, Heat shock factor protein 1 (Mus musculus, UniProt P38532); experiment: enhancement of HSF1-driven luciferase signal – cell-based, NIH3T3, luminescence, dose retest, confirmation (AID 435004); format: functional;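 also: stress induced by proteasome inhibitor MG132 added 30 min after compound; luciferase reporter driven by HSF1 response element in NIH3T3 cells; actives raise luminescence as potentiators of the MG132 stress response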
T6 sequence (P38532 whole entry): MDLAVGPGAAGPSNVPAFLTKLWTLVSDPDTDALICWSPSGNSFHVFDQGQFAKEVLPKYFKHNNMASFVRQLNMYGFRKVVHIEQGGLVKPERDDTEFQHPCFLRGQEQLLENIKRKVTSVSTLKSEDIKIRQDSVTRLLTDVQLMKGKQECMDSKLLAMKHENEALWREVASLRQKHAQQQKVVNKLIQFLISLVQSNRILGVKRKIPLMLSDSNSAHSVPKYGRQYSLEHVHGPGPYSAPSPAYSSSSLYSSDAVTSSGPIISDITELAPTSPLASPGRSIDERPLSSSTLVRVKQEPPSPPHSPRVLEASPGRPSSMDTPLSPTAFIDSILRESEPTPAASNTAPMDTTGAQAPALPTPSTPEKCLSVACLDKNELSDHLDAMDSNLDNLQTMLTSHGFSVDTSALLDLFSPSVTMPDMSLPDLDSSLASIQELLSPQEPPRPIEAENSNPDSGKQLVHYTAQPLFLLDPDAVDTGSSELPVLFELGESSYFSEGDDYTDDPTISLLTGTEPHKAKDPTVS

[19] = biological target: T7, Dual specificity protein phosphatase 6 (Rattus norvegicus, UniProt Q64346); experiment: inhibition of rat DUSP6 enzyme activity – biochemical, in vitro, primary screen (AID 425)
T7 sequence (Q64346 whole entry): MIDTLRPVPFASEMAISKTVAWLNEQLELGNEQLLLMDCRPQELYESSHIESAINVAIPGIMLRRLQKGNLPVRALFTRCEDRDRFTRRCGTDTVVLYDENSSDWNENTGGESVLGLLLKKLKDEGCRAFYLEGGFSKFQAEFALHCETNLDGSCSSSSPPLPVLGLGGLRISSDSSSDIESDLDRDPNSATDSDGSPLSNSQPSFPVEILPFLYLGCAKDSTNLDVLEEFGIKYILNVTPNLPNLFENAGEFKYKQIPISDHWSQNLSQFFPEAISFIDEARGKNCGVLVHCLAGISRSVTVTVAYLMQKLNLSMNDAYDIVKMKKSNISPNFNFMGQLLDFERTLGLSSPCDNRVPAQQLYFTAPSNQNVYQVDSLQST

[20] = Luminescence Cell-Based Dose Confirmation HTS to Identify Inhibitors of Polyadenylation.; format: functional
[21] = biological target: Aryl hydrocarbon receptor (Homo sapiens, UniProt P35869); experiment: Luminescence-based cell-based high throughput dose response assay for activators of the Aryl Hydrocarbon Receptor (AHR). [Related pubchem assays: 2796 (Primary screen (AHR activators in singlicate)), 2845 (Confirmation screen (AHR activators in triplicate)), 434939 (Counterscreen (PXR activators in triplicate)), 2804 (Summary (AHR activators))]; format: ADME
Chain of Aryl hydrocarbon receptor (P35869 whole entry): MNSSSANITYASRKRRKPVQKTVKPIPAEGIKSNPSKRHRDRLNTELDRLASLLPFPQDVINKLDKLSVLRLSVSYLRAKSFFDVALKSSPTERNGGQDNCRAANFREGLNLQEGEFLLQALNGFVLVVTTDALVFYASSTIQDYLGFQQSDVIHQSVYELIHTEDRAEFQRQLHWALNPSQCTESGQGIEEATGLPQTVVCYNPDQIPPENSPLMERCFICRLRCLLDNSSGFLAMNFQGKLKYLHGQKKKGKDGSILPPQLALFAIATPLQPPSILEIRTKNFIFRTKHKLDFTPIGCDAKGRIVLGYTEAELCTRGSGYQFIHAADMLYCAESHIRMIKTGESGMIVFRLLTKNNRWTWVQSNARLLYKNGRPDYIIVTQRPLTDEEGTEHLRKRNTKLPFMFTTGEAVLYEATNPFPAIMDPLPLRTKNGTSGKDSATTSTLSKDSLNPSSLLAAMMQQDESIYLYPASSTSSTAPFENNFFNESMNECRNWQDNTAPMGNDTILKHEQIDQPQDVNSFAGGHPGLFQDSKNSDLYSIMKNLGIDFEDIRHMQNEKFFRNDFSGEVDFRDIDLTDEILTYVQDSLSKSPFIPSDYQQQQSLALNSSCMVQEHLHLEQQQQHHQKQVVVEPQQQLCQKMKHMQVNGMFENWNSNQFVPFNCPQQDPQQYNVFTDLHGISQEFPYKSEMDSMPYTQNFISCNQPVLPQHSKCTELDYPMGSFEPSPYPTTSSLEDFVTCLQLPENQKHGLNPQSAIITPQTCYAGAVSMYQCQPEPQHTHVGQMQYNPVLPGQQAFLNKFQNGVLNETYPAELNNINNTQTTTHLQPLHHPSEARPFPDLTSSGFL

T5 sequence (Q7T1G6 whole entry): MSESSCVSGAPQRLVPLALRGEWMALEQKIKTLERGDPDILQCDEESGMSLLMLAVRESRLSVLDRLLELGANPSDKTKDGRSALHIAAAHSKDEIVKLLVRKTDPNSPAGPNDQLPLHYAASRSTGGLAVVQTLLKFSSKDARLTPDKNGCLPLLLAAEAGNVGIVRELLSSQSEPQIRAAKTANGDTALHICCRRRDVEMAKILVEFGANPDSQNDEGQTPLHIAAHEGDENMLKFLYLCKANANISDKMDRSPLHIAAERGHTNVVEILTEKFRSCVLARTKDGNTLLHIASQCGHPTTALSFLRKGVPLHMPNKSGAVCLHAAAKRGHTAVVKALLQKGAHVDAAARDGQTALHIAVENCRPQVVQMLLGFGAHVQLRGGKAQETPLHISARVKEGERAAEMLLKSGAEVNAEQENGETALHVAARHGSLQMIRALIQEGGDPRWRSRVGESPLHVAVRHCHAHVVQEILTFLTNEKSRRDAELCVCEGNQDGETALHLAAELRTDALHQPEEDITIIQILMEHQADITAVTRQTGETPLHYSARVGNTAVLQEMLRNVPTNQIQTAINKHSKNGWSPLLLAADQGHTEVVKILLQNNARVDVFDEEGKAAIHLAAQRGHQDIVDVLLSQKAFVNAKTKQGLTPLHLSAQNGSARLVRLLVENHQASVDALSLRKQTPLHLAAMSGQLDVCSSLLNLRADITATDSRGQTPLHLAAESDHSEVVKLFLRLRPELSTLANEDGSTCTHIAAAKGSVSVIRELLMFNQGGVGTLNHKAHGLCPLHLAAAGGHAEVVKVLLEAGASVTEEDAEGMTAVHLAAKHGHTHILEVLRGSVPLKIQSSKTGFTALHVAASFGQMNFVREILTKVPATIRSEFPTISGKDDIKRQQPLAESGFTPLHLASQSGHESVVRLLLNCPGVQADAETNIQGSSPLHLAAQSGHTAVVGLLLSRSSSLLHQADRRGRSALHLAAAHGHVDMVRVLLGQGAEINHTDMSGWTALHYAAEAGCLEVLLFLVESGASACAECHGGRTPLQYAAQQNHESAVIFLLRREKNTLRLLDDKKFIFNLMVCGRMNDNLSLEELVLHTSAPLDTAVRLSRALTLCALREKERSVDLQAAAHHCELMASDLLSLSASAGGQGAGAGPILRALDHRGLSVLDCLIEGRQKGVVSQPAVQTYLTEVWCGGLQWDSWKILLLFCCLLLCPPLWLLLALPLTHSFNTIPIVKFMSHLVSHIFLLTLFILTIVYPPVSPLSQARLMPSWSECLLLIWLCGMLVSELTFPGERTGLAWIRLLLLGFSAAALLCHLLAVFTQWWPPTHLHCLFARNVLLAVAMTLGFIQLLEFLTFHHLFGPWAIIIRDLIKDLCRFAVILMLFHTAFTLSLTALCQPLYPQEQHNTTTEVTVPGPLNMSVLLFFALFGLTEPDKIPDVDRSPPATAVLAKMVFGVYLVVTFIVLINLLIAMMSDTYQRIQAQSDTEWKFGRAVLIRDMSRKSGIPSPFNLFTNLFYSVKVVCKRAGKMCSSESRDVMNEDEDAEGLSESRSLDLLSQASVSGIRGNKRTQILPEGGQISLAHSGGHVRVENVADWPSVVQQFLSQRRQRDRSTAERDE
Chain of Cytochrome P450 2C19 (P33261 whole entry): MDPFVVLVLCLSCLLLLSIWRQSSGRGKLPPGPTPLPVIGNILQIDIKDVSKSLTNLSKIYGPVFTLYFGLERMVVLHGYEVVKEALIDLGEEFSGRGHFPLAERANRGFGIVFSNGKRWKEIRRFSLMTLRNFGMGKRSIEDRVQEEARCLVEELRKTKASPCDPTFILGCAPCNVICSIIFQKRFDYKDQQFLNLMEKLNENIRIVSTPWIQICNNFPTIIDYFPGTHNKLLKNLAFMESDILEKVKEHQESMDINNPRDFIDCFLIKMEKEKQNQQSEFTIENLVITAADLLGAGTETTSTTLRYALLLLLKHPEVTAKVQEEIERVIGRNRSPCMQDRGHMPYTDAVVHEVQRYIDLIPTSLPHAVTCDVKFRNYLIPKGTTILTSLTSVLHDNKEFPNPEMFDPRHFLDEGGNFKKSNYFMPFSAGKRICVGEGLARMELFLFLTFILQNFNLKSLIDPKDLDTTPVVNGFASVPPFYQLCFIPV
Chain of Photoreceptor-specific nuclear receptor (Q9Y5X4 whole entry): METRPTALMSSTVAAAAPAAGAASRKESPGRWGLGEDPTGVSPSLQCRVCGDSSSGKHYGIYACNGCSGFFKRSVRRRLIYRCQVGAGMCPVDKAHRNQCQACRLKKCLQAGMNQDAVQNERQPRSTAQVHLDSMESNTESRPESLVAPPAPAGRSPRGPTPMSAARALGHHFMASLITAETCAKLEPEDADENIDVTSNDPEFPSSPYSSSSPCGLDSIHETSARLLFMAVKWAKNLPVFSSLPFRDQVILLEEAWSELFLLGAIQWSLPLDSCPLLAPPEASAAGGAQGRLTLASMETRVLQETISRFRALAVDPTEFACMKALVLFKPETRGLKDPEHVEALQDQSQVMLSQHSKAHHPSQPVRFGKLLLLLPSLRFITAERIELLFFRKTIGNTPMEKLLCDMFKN
Chain of Glyceraldehyde-3-phosphate dehydrogenase (P04406 whole entry): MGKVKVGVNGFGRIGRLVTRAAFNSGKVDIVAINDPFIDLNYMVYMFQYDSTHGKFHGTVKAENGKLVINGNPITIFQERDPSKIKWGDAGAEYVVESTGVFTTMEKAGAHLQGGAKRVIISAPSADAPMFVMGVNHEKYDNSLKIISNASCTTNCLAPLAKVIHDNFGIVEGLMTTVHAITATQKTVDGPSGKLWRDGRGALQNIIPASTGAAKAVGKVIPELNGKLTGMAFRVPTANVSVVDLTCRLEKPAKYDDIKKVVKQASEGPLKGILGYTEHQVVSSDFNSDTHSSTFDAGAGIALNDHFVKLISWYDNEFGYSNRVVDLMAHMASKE
Chain of 5-hydroxytryptamine receptor 1E (P28566 whole entry): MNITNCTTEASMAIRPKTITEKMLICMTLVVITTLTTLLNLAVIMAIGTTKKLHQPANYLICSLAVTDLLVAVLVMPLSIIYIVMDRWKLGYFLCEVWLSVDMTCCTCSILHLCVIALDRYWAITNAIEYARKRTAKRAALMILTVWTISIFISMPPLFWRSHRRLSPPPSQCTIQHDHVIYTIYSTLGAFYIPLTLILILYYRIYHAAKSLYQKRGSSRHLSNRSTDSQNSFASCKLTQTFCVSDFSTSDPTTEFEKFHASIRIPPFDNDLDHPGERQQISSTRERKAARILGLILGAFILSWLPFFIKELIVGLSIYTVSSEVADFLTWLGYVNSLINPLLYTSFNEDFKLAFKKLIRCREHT
Chain of NADPH oxidase 1 (Q9Y5S8 whole entry): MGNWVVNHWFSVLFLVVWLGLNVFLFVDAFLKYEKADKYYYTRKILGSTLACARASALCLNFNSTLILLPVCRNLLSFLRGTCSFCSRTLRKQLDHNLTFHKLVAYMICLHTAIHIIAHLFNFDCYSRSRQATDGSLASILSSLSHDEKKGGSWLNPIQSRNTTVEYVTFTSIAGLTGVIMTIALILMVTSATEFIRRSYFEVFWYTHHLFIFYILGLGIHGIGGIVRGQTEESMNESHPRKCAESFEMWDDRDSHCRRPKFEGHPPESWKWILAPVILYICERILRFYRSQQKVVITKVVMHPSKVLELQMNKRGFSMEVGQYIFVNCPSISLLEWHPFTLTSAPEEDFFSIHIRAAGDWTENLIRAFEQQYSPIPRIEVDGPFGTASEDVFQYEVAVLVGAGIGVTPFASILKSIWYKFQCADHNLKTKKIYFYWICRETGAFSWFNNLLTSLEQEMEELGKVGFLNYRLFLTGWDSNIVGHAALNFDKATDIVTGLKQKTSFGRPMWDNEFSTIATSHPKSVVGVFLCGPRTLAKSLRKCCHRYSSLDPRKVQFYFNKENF
Chain of Sphingosine 1-phosphate receptor 3 (Q99500 whole entry): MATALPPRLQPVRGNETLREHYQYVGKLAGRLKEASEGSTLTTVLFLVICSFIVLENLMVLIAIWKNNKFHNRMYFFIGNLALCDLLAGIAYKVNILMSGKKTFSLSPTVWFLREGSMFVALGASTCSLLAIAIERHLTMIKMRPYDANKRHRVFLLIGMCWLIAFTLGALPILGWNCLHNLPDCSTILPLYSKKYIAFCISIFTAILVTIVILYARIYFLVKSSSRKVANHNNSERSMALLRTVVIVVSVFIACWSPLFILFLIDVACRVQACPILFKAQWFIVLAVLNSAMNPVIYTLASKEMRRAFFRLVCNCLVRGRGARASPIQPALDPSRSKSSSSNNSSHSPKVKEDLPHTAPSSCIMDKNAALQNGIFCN

## CC(C)C[C@@H](CC(=O)N[C@H](CC(=O)N[C@@H]1CCNC[C@H]1C(=O)N[C@H](CC(=O)N[C@@H](CCC(=O)O)CC(=O)O)Cc1ccccc1)C(C)C)NC(=O)[C@@H]1CCCC[C@H]1N
Cytochrome P450 2C19
  AC50: 39.8 µM (inconclusive)

## O=C(CSc1nnc(-c2ccc(Br)o2)n1Cc1ccccc1)c1ccccc1F
[1]
  IC50: > 50 µM (not active)
[2]
  IC50: > 50 µM (not active)

## O=C1C(Cl)=C(NCc2ccccc2)C(=O)N1c1ccc(Cl)c(Cl)c1
Bcl-2-related protein A1 [3]
  IC50: > 100 µM (not active)
Bcl-2-related protein A1 [4]
  IC50: 73.7 µM (active)
[5]
  IC50: > 100 µM (not active)

## N#C/C(=C1\CCCN1)c1nc(-c2ccccc2)cs1
Orexin receptor type 2 [6]
  IC50: > 50 µM (inactive)
[7]
  IC50: 7.67 µM (active)
[8]
  IC50: > 49.8 µM (inactive)
Orexin receptor type 2 [9]
  IC50: > 88.8 µM (inactive)
[10]
  IC50: 2.44 µM (active)
CHO-K1
  IC50: > 66.2 µM (inactive)
[11]
  IC50: > 100 µM (active)

## Cc1cc(=O)oc2cc(OCC(=O)NCCc3c[nH]c4ccc(F)cc34)ccc12
[12]
  IC50: 8.78 µM (active)
[13]
  IC50: 6.11 µM (active)

## CCCOc1cc(C)c(Cl)cc1S(=O)(=O)N(CC)CC
Mucolipin-3 [14]
  EC50: 4.72 µM (active)
Ion channel NompC [15]
  EC50: > 29.9 µM (not active)
Mucolipin-3 [16]
  EC50: 1.6 µM (active)
Ion channel NompC [17]
  EC50: > 29.9 µM (not active)

## COc1ccc2c(Cl)c(C(=O)Oc3ccccc3Cl)sc2c1
NADPH oxidase 1
  IC50: > 17 µM (not active)

## [O-]/[N+](=C\c1ccc(OC(F)F)cc1)c1ccccc1
[18]
  EC50: > 260 µM (inactive)
[19]
  IC50: > 100 µM (not active)

## CC(NC(=O)c1ccc(Br)cc1Br)c1ccccc1 (centres undefined)
[20]
  EC50: > 120 µM (not active)

## CCOc1ccc(-c2cc(C)n3nc(C(N)=O)cc3n2)cc1
[21]
  EC50: 2.63 µM (active)
